Laboratory results taken from ChEMBL document CHEMBL5360597, “Medicinal Chemistry Insights into the Development of Small-Molecule Kelch-Like ECH-Associated Protein 1-Nuclear Factor Erythroid 2-Related Factor 2 (Keap1-Nrf2) Protein-Protein Interaction Inhibitors” (J Med Chem, 2023).

Target: Keap1/Nrf2 (Homo sapiens, UniProt Q14145)
Experiment: Inhibition of Keap1 Kelch domain (unknown origin)/FITC-labelled-9mer Nrf2 (unknown origin) protein-protein interaction incubated for 30 mins by fluorescence polarisation assay

Chain of Keap1/Nrf2 (Q16236 whole entry, the tested form may be a part): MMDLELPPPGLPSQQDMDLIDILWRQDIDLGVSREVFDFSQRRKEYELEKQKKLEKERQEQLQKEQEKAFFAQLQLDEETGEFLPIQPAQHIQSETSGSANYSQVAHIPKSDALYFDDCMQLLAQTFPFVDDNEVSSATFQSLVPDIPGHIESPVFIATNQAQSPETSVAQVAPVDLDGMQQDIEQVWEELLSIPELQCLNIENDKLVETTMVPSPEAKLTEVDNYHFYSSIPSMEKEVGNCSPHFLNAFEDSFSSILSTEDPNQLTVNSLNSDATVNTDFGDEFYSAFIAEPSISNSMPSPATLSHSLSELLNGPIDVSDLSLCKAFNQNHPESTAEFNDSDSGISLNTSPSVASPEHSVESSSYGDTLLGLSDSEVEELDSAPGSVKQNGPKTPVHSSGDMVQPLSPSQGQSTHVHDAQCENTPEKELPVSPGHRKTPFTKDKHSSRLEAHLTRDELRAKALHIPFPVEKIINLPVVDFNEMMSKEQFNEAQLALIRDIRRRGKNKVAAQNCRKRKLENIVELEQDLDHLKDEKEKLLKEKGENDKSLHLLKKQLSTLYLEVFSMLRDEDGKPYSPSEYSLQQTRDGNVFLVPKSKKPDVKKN
Chain of Keap1/Nrf2 (Q14145 whole entry, the tested form may be a part): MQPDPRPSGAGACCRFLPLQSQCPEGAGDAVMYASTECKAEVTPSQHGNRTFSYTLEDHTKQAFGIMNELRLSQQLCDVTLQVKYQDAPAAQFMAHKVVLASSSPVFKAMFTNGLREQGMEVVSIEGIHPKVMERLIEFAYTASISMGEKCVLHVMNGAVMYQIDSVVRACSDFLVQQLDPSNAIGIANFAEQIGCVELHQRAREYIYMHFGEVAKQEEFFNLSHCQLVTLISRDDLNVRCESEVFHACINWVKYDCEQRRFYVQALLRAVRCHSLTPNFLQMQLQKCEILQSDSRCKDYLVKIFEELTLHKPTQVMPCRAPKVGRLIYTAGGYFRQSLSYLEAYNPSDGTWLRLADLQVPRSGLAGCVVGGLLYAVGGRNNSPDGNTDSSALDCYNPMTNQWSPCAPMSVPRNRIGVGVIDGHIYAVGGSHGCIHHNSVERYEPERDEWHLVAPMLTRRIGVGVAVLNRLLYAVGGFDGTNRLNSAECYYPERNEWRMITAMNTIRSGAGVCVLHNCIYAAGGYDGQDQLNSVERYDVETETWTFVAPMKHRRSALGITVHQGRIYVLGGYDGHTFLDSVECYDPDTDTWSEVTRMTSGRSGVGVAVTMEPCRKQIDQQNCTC

IC50: 31.5 µM
SMILES: COc1ccc(S(=O)(=O)Nc2ccc(NS(=O)(=O)c3cccnc3)cc2)cc1
